Experiment [1] concerns Arabidopsis thaliana plants. As to the kind of experiment: SOA1 phenotypic analysis of herbicide-treated plants. The format is in vivo. To be noted: for Symptom Class: three-week-old plants, foliar spray; for characteristic symptoms (phenotype): herbicide-treated plants.
Experiment [2] relates to Arabidopsis thaliana. As to the kind of experiment: MOA1 gene expression profiling (22,000-gene microarray). To be noted: regulated genes compared to internal list of essential genes.
Experiment [3] deals with Arabidopsis thaliana. The experiment can be described thus: MOA1 biochemical (metabolite) profiling by LC-MS and GC-MS. To be noted: within one hour after spraying.
Experiment [4] relates to Saccharomyces cerevisiae wild type strain BY4743. As to the kind of experiment: AF1 yeast metabolite analysis by GC-MS and LC-MS. The format is cell-based.
Setting [5] is: numeric value standardized to mock treated.

Turning to `O=C(O)COc1ccc(Cl)cc1Cl` [2,4-D], the “tMic Dev.” value in experiment [1] (setting [5]) was found to be 2. Also, the “Symptom Class” value in experiment [1] amounted to 5.

For the molecule `O=C(O)c1cc(Oc2ccc(C(F)(F)F)cc2Cl)ccc1[N+](=O)[O-]` [Acifluorfen], the “characteristic symptoms (phenotype)” value in experiment [1] is “Necrotic leaf flecks”.

For the molecule `Nc1nc[nH]n1` [Amitrole], in experiment [1], the “characteristic symptoms (phenotype)” value was “leaf bleaching and leaf enlargement”.

As for `COC(=O)NS(=O)(=O)c1ccc(N)cc1` [Asulam], the “No. of Lethal Genes Altered” value in the experiment with Arabidopsis thaliana [2] came out at 5.

On to `CCNc1nc(Cl)nc(NC(C)C)n1` [Atrazine], for which, in experiment [1], the “characteristic symptoms (phenotype)” value was “rapid and widespread leaf necrosis”.

For `CC(C)N1C(=O)c2ccccc2NS1(=O)=O` [Bentazon], the “characteristic symptoms (phenotype)” value in experiment [1] was “rapid and widespread leaf necrosis”.

Consider `COC(=O)c1cc(Oc2ccc(Cl)cc2Cl)ccc1[N+](=O)[O-]` [Bifenox], for which the “characteristic symptoms (phenotype)” value in experiment [1] is listed as “Necrotic leaf flecks”.

`CCSC(=O)N(CC(C)C)CC(C)C` [Butylate]: in the experiment on Arabidopsis thaliana [3], the stress-related metabolites entry is on record as “neither butylate nor chlorpropham treatment resulted in many changes”.

Consider `CC(C)OC(=O)Nc1cccc(Cl)c1` [Chloropropham], for which, in the experiment with Arabidopsis thaliana [3], the stress-related metabolites result is “neither butylate nor chlorpropham treatment resulted in many changes”.

Regarding `COc1nc(C)nc(NC(=O)NS(=O)(=O)c2ccccc2Cl)n1` [Chlorsulfuron], in experiment [1], the “characteristic symptoms (phenotype)” value is on record as “anthocyanin accumulation in the older leaves accompanied by chlorosis of the newly emerging leaves”. Further, the “No. of Lethal Genes Altered” value in the experiment with Arabidopsis thaliana [2] came to 8.

Consider `c1cc[n+]2c(c1)-c1cccc[n+]1CC2` [Diquat], for which, in experiment [1], the “characteristic symptoms (phenotype)” value is “rapid and widespread leaf necrosis”; the “Symptom Class” value was 7. Moreover, the “tMic Dev.” value in experiment [1] (setting [5]) amounted to 2.

For `CN(C)C(=O)Nc1ccc(Cl)c(Cl)c1` [Diuron], in experiment [1], the “characteristic symptoms (phenotype)” value was “rapid and widespread leaf necrosis”; the “Symptom Class” value was 7. In addition, in experiment [1] (setting [5]), the “newLeafAnthocyanins Dev.” value is reported as “newLeafAnthocyanins 0” and the “tMic Dev.” value amounted to 1.

With `OC(Cn1cncn1)(Cn1cncn1)c1ccc(F)cc1F` [Fluconazole], in experiment [4] (GC), the “Fold Change of TMS mevalonic acid lactone” value is reported as 0.1434, the “Fold Change of squalene” value is 0.1999, the “Fold Change of tetradecanoic acid” value was determined as 0.07967 and the “Fold Change of threonine2” value is listed as 0.5053. In addition, in experiment [4] (GC), the “Fold Change of threonine3” value came to 0.2513, the “Fold Change of tms glutamine3” value came out at 0.7271, the “Fold Change of tms lysine4” value is on record as 0.3657 and the “Fold Change of tms tyrosine2” value came out at 0.8643. Further, in experiment [4] (GC), the “Fold Change of tms tyrosine3” value turned out to be 0.3321 and the “Fold Change of valine” value was 0.2727. Moreover, in experiment [4] (nLC), the “Fold Change of retinoic acid” value amounted to 0, the “Fold Change of salicylic/HObenzoic” value is reported as 0, the “Fold Change of selenoDLmethionine” value is on record as −0.5748 and the “Fold Change of serine” value was found to be 0.3936. Further, in experiment [4] (nLC), the “Fold Change of shikimic acid” value was found to be 0, the “Fold Change of sinapinic acid” value amounted to 0, the “Fold Change of sorbitol/mannitol” value is on record as 0.365 and the “Fold Change of succinic” value was found to be 0.3094. Besides, in experiment [4] (nLC), the “Fold Change of sucrose” value is 0.3104, the “Fold Change of sugar-phosphate” value is recorded as −0.05306, the “Fold Change of tetradecanoic acid” value is reported as 0.5495 and the “Fold Change of threonine/homoserin” value is given as 0.3257. Besides, in experiment [4] (nLC), the “Fold Change of thymine” value turned out to be 0, the “Fold Change of tryptophan” value turned out to be 1.649, the “Fold Change of tyrosine” value is reported as 0.2303 and the “Fold Change of uracil” value turned out to be 1.256. For the same molecule, in experiment [4] (nLC), the “Fold Change of uridine” value is 0.3463, the “Fold Change of urocanic acid” value is 0, the “Fold Change of valine” value is listed as 0.3235 and the “Fold Change of xanthosineDiH2O” value worked out at 0. In addition, in experiment [4] (nLC), the “Fold Change of zeatin” value was found to be 0. In experiment [4] (pLC), the “Fold Change of riboflavin” value worked out at 0, the “Fold Change of selenoDLmethionine” value is recorded as −0.6865, the “Fold Change of serine” value is listed as 0.11 and the “Fold Change of sugar-phosphate” value was 0. Further, in experiment [4] (pLC), the “Fold Change of thiamine” value is on record as 0, the “Fold Change of threonine/homoserin” value came to 0.1604, the “Fold Change of thymine” value was 0 and the “Fold Change of tryptophan” value is 0. Besides, in experiment [4] (pLC), the “Fold Change of tyrosine” value is listed as 0.1099, the “Fold Change of uric acid” value worked out at 0, the “Fold Change of urocanic acid” value was found to be 0 and the “Fold Change of xanthosine(diH2O)” value turned out to be 0. The “Fold Change of zeatin” value in experiment [4] (pLC) is listed as 0. In experiment [4] (platform GC), the “Fold Change of campesterol” value was 0, the “Fold Change of desmosterol” value is 0 and the “Fold Change of octadecanoic acid” value is given as 0.082. Besides, in experiment [4] (platform LC), the “Fold Change of abscisic acid” value is on record as 0 and the “Fold Change of adenosine” value was 0. In addition, in experiment [4] (platform nLC), the “Fold Change of 4-methylcatechol” value is on record as 0, the “Fold Change of 5hydroxyLtryptophan” value was 0, the “Fold Change of 6-benzylaminopurine” value was 0 and the “Fold Change of NacetylDglucosamine” value is on record as 0. In experiment [4] (platform nLC), the “Fold Change of NacetylLornithine” value is given as 0, the “Fold Change of abscisic acid” value is reported as 0, the “Fold Change of adenine” value is given as 0 and the “Fold Change of adenosine” value is 0. Moreover, in experiment [4] (platform nLC), the “Fold Change of anthranilic acid” value came out at 0, the “Fold Change of argininosuccinate” value is 0, the “Fold Change of benzoic acid” value is 0 and the “Fold Change of catechol” value stood at 0. In experiment [4] (platform nLC), the “Fold Change of cinnamic acid” value worked out at 0, the “Fold Change of citricanoic/itaconi” value was 0, the “Fold Change of citrulline” value came to 0 and the “Fold Change of coumaric acid” value came to 0. For the same molecule, in experiment [4] (platform nLC), the “Fold Change of cytosine” value is given as 0, the “Fold Change of diaminopimelic acid” value was found to be 0, the “Fold Change of dihydrofolic acid” value worked out at 0 and the “Fold Change of estrone” value amounted to 0. Further, in experiment [4] (platform nLC), the “Fold Change of farnesol” value stood at 0, the “Fold Change of folic acid” value was determined as 0, the “Fold Change of gibberellic” value amounted to 0 and the “Fold Change of glutamine/lysine” value amounted to 0.3309. Moreover, in experiment [4] (platform nLC), the “Fold Change of guanine” value is given as 0, the “Fold Change of histidine” value stood at 0, the “Fold Change of homogentisic/uric” value is 0 and the “Fold Change of hydrocortisone” value is listed as 0. In experiment [4] (platform nLC), the “Fold Change of indole3pyruvic acid” value was 0, the “Fold Change of jasmonic acid” value is 0, the “Fold Change of kinetin” value was determined as 0 and the “Fold Change of luteolin” value stood at 0. Also, in experiment [4] (platform nLC), the “Fold Change of malonic acid” value is on record as 0, the “Fold Change of methionine” value came to 0, the “Fold Change of orotic acid” value is reported as 0 and the “Fold Change of phenylpyruvic acid” value turned out to be 0. For the same molecule, in experiment [4] (platform nLC), the “Fold Change of phosphoenolpyruvate” value is reported as 0, the “Fold Change of pinitol” value was found to be 0 and the “Fold Change of porphobilinogen” value came to 0. For the same molecule, in experiment [4] (platform pLC), the “Fold Change of 4-aminobenzoic acid” value came out at 0, the “Fold Change of 4-methylcatechol” value came out at 0, the “Fold Change of 5hydroxyLtryptophan” value is 0 and the “Fold Change of 6benzylaminopurine” value was determined as 0. Moreover, in experiment [4] (platform pLC), the “Fold Change of NacetylDglucosamine” value was 0, the “Fold Change of NacetylLglutamate” value is recorded as 0, the “Fold Change of allantoic acid” value came to 0 and the “Fold Change of anthranilic acid” value is reported as 0. Moreover, in experiment [4] (platform pLC), the “Fold Change of argininosuccinate” value is on record as 0, the “Fold Change of biotin” value is 0, the “Fold Change of caffeine” value stood at 0 and the “Fold Change of citric acid TME” value was 0. In experiment [4] (platform pLC), the “Fold Change of cytidine” value was determined as 0, the “Fold Change of cytosine” value is recorded as 0, the “Fold Change of diaminopimelic acid” value is 0 and the “Fold Change of dihydrofolic acid” value is 0. In experiment [4] (platform pLC), the “Fold Change of dipicolinic acid” value is given as 0, the “Fold Change of folic acid” value amounted to 0, the “Fold Change of glucosamine” value is listed as 0 and the “Fold Change of glucosamine6PO4” value is listed as 0. For the same molecule, in experiment [4] (platform pLC), the “Fold Change of histidine” value is listed as 0, the “Fold Change of hydrocortisone” value was 0, the “Fold Change of itaconic acid dimes” value is given as 0 and the “Fold Change of kinetin” value amounted to 0. Besides, in experiment [4] (platform pLC), the “Fold Change of luteolin” value amounted to 0, the “Fold Change of niacinamide” value is 0, the “Fold Change of nopaline” value amounted to 0 and the “Fold Change of phosphoenolpyruvate” value is on record as 0. Besides, the “Fold Change of progesterone” value in experiment [4] (platform pLC) was 0.

`CP(=O)(O)CCC(N)C(=O)O` (centres unmarked) [Glufosinate]: in experiment [1], the “characteristic symptoms (phenotype)” value is “Chlorosis and leaf curling”; the “Symptom Class” value was determined as 3. Also, the “tMic Dev.” value in experiment [1] (setting [5]) is 1. Further, the “No. of Lethal Genes Altered” value with Arabidopsis thaliana [2] is 10.

As for `CC(C)C1(C)N=C(c2ncccc2C(=O)O)NC1=O` (centres unmarked) [Imazapyr], in experiment [1], the “characteristic symptoms (phenotype)” value was “anthocyanin accumulation in the older leaves accompanied by chlorosis of the newly emerging leaves”.

On to `CCc1cnc(C2=NC(C)(C(C)C)C(=O)N2)c(C(=O)O)c1` (centres unmarked) [Imazethapyr], for which the “characteristic symptoms (phenotype)” value in experiment [1] is given as “anthocyanin accumulation in the older leaves accompanied by chlorosis of the newly emerging leaves”.

As for `CC(=O)N1CCN(c2ccc(OCC3COC(Cn4ccnc4)(c4ccc(Cl)cc4Cl)O3)cc2)CC1` (centres unmarked) [Ketoconazole], the “# Compounds perturbed” value in experiment [4] (P < 0.1, 2×MIC, two hours) worked out at 15.

For `CSc1nnc(C(C)(C)C)c(=O)n1N` [Metribuzin], the “characteristic symptoms (phenotype)” value in experiment [1] was “rapid and widespread leaf necrosis”.

Turning to `O=C(O)c1ccccc1C(=O)Nc1cccc2ccccc12` [Naptalam], the “No. of Lethal Genes Altered” value with Arabidopsis thaliana [2] stood at 3.

Regarding `C[n+]1ccc(-c2cc[n+](C)cc2)cc1` [Paraquat], in experiment [1], the “characteristic symptoms (phenotype)” value was “rapid and widespread leaf necrosis”; the “Symptom Class” value is reported as 7.

Turning to `CC[C@@H]([C@H](C)O)n1ncn(-c2ccc(N3CCN(c4ccc(OC[C@@H]5CO[C@@](Cn6cncn6)(c6ccc(F)cc6F)C5)cc4)CC3)cc2)c1=O` [Posaconazoie], the “Fold Change of luteolin” value in experiment [4] (LC) was determined as 0.

With `CC[C@@H]([C@H](C)O)n1ncn(-c2ccc(N3CCN(c4ccc(OC[C@@H]5CO[C@@](Cn6cncn6)(c6ccc(F)cc6F)C5)cc4)CC3)cc2)c1=O` [Posaconazote], the “Fold Change, porphobilinogen” value in experiment [4] (detected metabolite porphobilinogen, platform nLC) stood at 0.
